The values that follow come from US8507446B2, “Use of PEDF-derived polypeptides for treating liver cirrhosis” (MacKay Memorial Hospital, priority 2011, dated 2013).

Series [1] has as its system culture-activated primary rat HSCs. Description: Activation of culture-activated primary hepatic stellate cells. The following applies: for Col1a1 expression (immunoblot) / MCP-1 expression (immunoblot) / amounts of PPARγ (immunoblot) / α-SMA expression (immunoblot): 48 hours vs solvent, 4.5 nM PEDF, 50 nM 34-mer, 50 nM 44-mer. The series is classed as cell-based. As for the experimental part: Primary HSCs were isolated by in situ perfusion with collagenase and pronase from livers of male Sprague-Dawley rats (300-450 g), followed by a 25%/50% Percoll gradient centrifugation at 4° C. HSCs were isolated from the upper layer of the discontinuous Percoll density gradient as previously described method (Titos et al., FASEB J 2003 17:1745-1747). Then cells were re-suspended in Dulbecco's modified Eagle's medium (DMEM) supplemented with 10% fetal bovine serum (FBS) and 1% penicillin/streptomycin and plated on 100-mm plastic dishes. Cell purity was verified to be approximately 95-98% by vitamin A fluorescence on day 2 after isolation. HSCs were activated by culturing the cells on plastic for 10 days and then passaged by trypsin-EDTA treatment. Subsequently, the activated HSCs were incubated in 10% FBS-DMEM for 2 days and then used for further experiments.
(§1) Deparaffinized liver tissue sections or 4% paraformaldehyde fixed HSCs were blocked with 10% goat serum and 5% BSA for 1 h. Dual staining was done using primary antibodies against human PEDF (se-59641; Santa Cruz Biotechnology, CA, USA) or α-SMA (ab5694 or ab7817; Abcam), PPARγ (sc-7273; Santa Cruz Biotechnology), albumin (sc-46295; Santa Cruz Biotechnology) or cytokeratin (CK) 18 (GTX112978; GeneTex, Inc.) at 37° C. for 2 h, followed by incubation with the appropriate rhodamine- or FITC-conjugated donkey IgG for 1 hr at room temperature. Nuclei were located by counterstaining with Hoechst 33258 for 7 min. Images were captured using a Zeiss epifluorescence microscope with a CCD camera.
(§2) Cells were scraped into lysis buffer (150 μL/35-mm well) containing 20 mM HEPES (pH 7.4), 1% SDS, 150 mM NaCl, 1 mM EGTA, 5 mM β-glycerophosphate, 10 mM sodium pyrophosphate, 10 mM sodium fluoride, […] sodium orthovanadate, 10 μg/mL leupeptin, and 10 μg/mL aprotinin. The lysate was incubated on ice for 15 min. Total cell lysate was also separated into cytoplasmic and nuclear fractions using the NE-PER nuclear and cytoplasmic extraction kit (Pierce, Rockford, Ill.) according to the manufacturer's instructions. Each cellular fraction was then resolved by SDS-PAGE and then electrotransferred to polyvinylidene difluoride membranes (Millipore, Bedford, Mass.) and processed for immunoblot analysis. Antibodies used in the immunoblot study included human PEDF (sc-59641; Santa Cruz Biotechnology), mouse PEDF (sc-74253; Santa Cruz Biotechnology), type I collagen 1A1 (sc-25974; Santa Cruz Biotechnology), α-SMA (ab5694 or ab7817; Abcam), PPARγ••(sc-7273; Santa Cruz Biotechnology), MCP-1 (ab7202; Abcam Ltd), α-actin (Sigma), epithelial cell adhesion molecule (EpCAM; sc-66020; Santa Cruz Biotechnology), hepatocytes nuclear factor and (HVF)3-β (sc-6554; Santa Cruz Biotechnology). Proteins of interest were detected using the appropriate IgG-HRP secondary antibody and ECL reagent. X-ray films were scanned on a Model GS-700 Imaging Densitometer (Bio-Rad Laboratories, Hercules, Calif.) and analyzed using Labworks 4.0 software. For quantification, blots from at least three independent experiments were used.
After treatment, primary rat HSCs were fixed for 2 h with 4% paraformaldehyde, washed by PBS and then permeabilized for 5 min with 0.1% Triton X-100. Changes in F-actin structures were detected by […] rhodamine-conjugated phalloidin (Sigma) for 1 h at room temperature. Stained F-actin was visualized using a Zeiss Axiovert 25 microscope.
To verify whether the PEDF-derived peptides, particularly, 34-mer PEDF and 44-mer PEDF, may prevent HSCs from activation, culture-activated primary rat HSCs were treated with 4.5 nM PEDF, 50 nM 44-mer, 50 nM 34-mer or PEDF solvent (20 mM Tris/HCl, pH 7.4, 100 mM NaCl) for 48 hours. […] Immunofluorescent assay also confirmed that 34-mer PEDF reduced the levels of α-SMA in culture-activated HSCs as compared with 44-mer PEDF treatment (FIG. 6F). Such result is consistent with the finding in Example 1 that PEDF prevents HSCs from activation by induction of PPARγ.

Series [2] relates to liver-derived progenitor cells (LDPCs) in primary rat liver cells. Nature of the series: Clonogenic capacity of liver cells (LDPC colony formation). The series is classed as cell-based. The following applies: basal medium with 4.5 nM PEDF, 50 nM 34-mer, 50 nM 44-mer or 10% FBS; after 11 days in culture. How it is done: (§3) Liver cells from Sprague Dawley rats were harvested by 2-step in situ collagenase perfusion technique. The cells were then washed in phosphate buffered saline and centrifuged (50 g for 5 minutes) twice at room temperature. The cells were not further subjected to any fractionation as previously described (Sahin M B et al., Liver Transpl. 2008 14(3):333-45). Freshly isolated rat liver cells were cultured in a medium consisting of 75% Dulbecco's modified Eagle's medium (DMEM) and 25% MCDB 201 (Sigma-Aldrich) supplemented with 10% fetal bovine serum, 1 mg/mL of bovine serum albumin (BSA; Sigma), 100 μM of β-mercaptoethanol (Gibco, Carlsbad, Calif.), 25 mM of 4-2-hydroxyethyl-1-piperazineethanesulfonic acid (HEPES), 5 mM of Nicotinamide (Sigma-Aldrich), 1% SITE liquid medium (Sigma-Aldrich), and penicillin (100 μg/ml)/streptomycin (100 μg/ml; Invitrogen, Carlsbad, Calif.) on Type I collagen (Sigma, St. Louis, Mo.) coated tissue culture plates or dishes at a density of 1×10^4 cells/cm^2 at 37° C. in 5% CO2.
To verify the function of 44-mer PEDF, primary rat liver cells were isolated in accordance with steps described above and cultivated (about 1×10^5 per well of 6-well plate; 1×10^4 cells/cm^2) in a conventional basal medium, which was further supplemented with 4.5 nM PEDF, 50 nM 34-mer PEDF, 50 nM 44-mer PEDF or 10% FBS. Medium was changed every 3 days. After being placed in culture for 11 days, clonogenic capacity of liver cells was continuously monitored by phase-contrast microscopy. During this time period, liver-derived progenitor cells (LDPCs) began markedly emerged in primary liver cultures while hepatocytes started dying out. Few colonies were formed by liver cells when continuously cultivated in basal medium, or medium supplemented with 34-mer or FBS.

For series [3], the system named is liver-derived progenitor cells (LDPCs). Description: Self-renewal of LDPCs over two passages and differentiation into hepatocytes. The series is classed as cell-based, rat. The following applies: for autofluorescence (LDPC marker): 4.5 nM PEDF, 50 nM 34-mer or 50 nM 44-mer. As for the experimental part:
as §3, §1, §2
It has been reported that LDPCs may not be expanded in conventional basal medium, unless growth factor(s) were added therein (Sahin et al., Liver Transpl. 2008 14(3):333-45). To test the self-renewal property of PEDF derived peptides on LDPCs, liver cells were isolated and grown in separate medium including 4.5 nM (200 ng/ml) PEDF, 50 nM 34-mer or 50 nM 44-mer for two passages, which took a period of 35 days. The newly produced LDPCs in the cultured cells were confirmed by the detection of autofluorescence emitted therefrom; as well as two LDPC markers, which are epithelial cell adhesion molecule (EpCAM) and hepatocytes nuclear factor 3•••(HNF3)-β, by immunoblot analysis. […]

Series [4] relates to HSC-T6 cells. Nature of the series: PPARγ induction and PPARγ siRNA reversal in HSC-T6 cells. The series is classed as cell-based, rat. The following applies: siRNA pretreatment 16 hours before PEDF; 10 nM siRNA. How it is done:
HSC-T6 cells, a rat immortalized HSC, retained all features of activated HSCs and was kindly provided by Dr. Friedman S L (Kim et al., J Biol Chem 1998 273:33750-33758). HSC-T6 cells were grown in Waymouth medium supplemented with 10% FBS at 37° C. in a humidified atmosphere of 5% CO2.
The total RNA was extracted from cells using the TRIzol (Invitrogen, Carlsbad, Calif.). […] The intensities of the PCR products were quantified using a FUJI LAS-3000 densitometer and Multi Gauge Ver. […]
Cells were scraped into lysis buffer (150 μL/35-mm well) containing 20 mM HEPES (pH 7.4), 1% SDS, 150 mM NaCl, 1 mM EGTA, 5 mM β-glycerophosphate, 10 mM sodium pyrophosphate, 10 mM sodium fluoride, […] sodium orthovanadate, 10 μg/mL leupeptin, and 10 μg/mL aprotinin. […] Proteins of interest were detected using the appropriate IgG-HRP secondary antibody and ECL reagent. X-ray films were scanned on a Model GS-700 Imaging Densitometer (Bio-Rad Laboratories, Hercules, Calif.) and analyzed using Labworks 4.0 software. For quantification, blots from at least three independent experiments were used. […]

For “34-mer PEDF: synthetic human peptide, the segment of PEDF from amino acid residues 44 to 77 (Ac-DPFFKVPVNKLAAAVSNFGYDLYRVRSSTSPTTN-NH2)”, in series [1], the “Col1a1 expression (immunoblot)” value is listed as “reduced”, the “MCP-1 expression (immunoblot)” value is “reduced”, the “amounts of PPARγ (immunoblot)” value is “enhanced” and the “α-SMA expression (immunoblot)” value was “reduced”. Moreover, the “α-SMA by immunofluorescent staining” value in series [1] (culture-activated HSCs, 34-mer compared with 44-mer PEDF treatment) is given as “reduced”. Moreover, the HSC morphology entry in series [1] (culture-activated HSCs, phase contrast / immunofluorescence) is reported as “causes reversal of the activated HSC morphology”. Also, the “colonies of LDPCs formed” value in series [2] is “Few colonies”. For the same substance, the “autofluorescence (LDPC marker)” value in series [3] (two passages, 35 days) was “very little autofluorescence or none at all”.
“Ac-VLLSPLSVATALSALSLGAEQRTESIIHRALTTDLISSPDIHGT-NH2 [44-mer PEDF]”: in series [1], the “Col1a1 expression (immunoblot)” value was “does not possess such effects”, the “MCP-1 expression (immunoblot)” value is recorded as “does not possess such effects”, the “amounts of PPARγ (immunoblot)” value is reported as “does not possess such effects” and the “α-SMA expression (immunoblot)” value was “does not possess such effects”. In series [2], the “colonies of LDPCs formed” value is “dense colonies”. In series [3] (two passages, 35 days), the “autofluorescence (LDPC marker)” value is reported as “emitted autofluorescence”; the “self-renewal by expression of LDPC markers EpCAM and HNF3-β (immunoblot)” value was “exhibits self-renewal property”. The “ability of expanded LDPCs to differentiate into hepatocytes (albumin and CK-18 staining)” value in series [3] (immunofluorescence) is given as “retain the ability of differentiating into hepatocyte”.
For the substance “PPARγ siRNA: rat PPARγ siRNA (SEQ ID NO: 7/8) or a mixture of four rat PPARγ siRNAs (SMART-pools) (chain 1 CACCAUUUGUCAUCUACGATT; chain 2 UCGUAGAUGACAAAUGGUGTT; chemistry not given here) [reference compound]”, in series [4], the “suppressive effects of PEDF on HSC activation (α-SMA, Col1a1, MCP-1)” value is “significantly reduced the suppressive effects of PEDF”.
